Assay results from patent publication US20250360130A1, “METHODS OF TREATING INDOLENT SYSTEMIC MASTOCYTOSIS” (Telios Pharma Inc., priority 2024, published 2025).

How the values were obtained:
mast cells [1] = experiment: Downstream signaling proteins in antigen-stimulated mast cells (FIG. 20); assay type: cell-based; conditions: mast cells stimulated with an antigen
basophils [2] = experiment: Basophil Activation Test (BAT), CD63, whole blood; assay type: cell-based, human; conditions: 24 hours versus 2 hours drug exposure
Procedure: (§1) The BAT was conducted as set forth in Santos (2021) Allergy, 76:2420-2432. Blood from six healthy donors was drawn and Compound 128 was added at various concentrations (10 μM, 3.16 μM, 1 μM, 0.3 μM, 0.1 μM, 0.03 μM, or 0 μM). Blood samples were gently rocked at room temperature for 2 hours, 24 hours, or 48 hours. The BAT assay using the Flow Cast Basophil Activation Kit (Buhlmann Diagnostics; Catalog #B-CCR-STCON) was then conducted following manufacturer instructions by (1) stimulating the blood with anti-FcεR stimulation control in stimulation buffer with IL-3 and staining cells for CCR3 and CD63 for 15 minutes at 37° C., (2) lysing red blood cells and fixing cells with Lysing Reagent at room temperature for 10 minutes, (3) washing cells with Wash Buffer, and (4) acquiring data on a flow cytometer. Activated basophils were defined as CCR3+, low side scatter and CD63+. Percent of activated basophils was calculated as number of activated basophils over the total number of basophils. A four-parameter logistic regression was applied to determine the EC50 and EC90.

mast cells [3] = experiment: Monomeric IgE-mediated degranulation and cytokine production in mast cells; assay type: cell-based, human; conditions: mast cells from a healthy donor, 2 hours treatment, myeloma IgE with SCF
Procedure: Mast cells from a healthy donor were starved of SCF for 18 hours and treated with Compound 128 for 2 hours. Mast cells were stimulated with SCF (100 ng/ml) or myeloma IgE (3 μg/ml; Millipore Sigma) alone or in combination for 30 minutes (CD63 and Histamine) or 24 hours (cytokine production), respectively. For the histamine and cytokine test, supernatant was collected and the levels of histamine and cytokines were measured as set forth in Example 4 for histamine and Example 7 for cytokines. For the CD63 test, the cells were stained for CD63, data was acquired on a flow cytometer and percent activated mast cells calculated as set forth in Example 4. […] The monomeric IgE contribution to degranulation and cytokine production is inhibited by Compound 128.

basophils [4] = experiment: Comparison of BTK inhibitors by BAT (CD63, CD203c); assay type: cell-based, human; conditions: concentration of 1 μM, 2 hours, blood from a healthy donor
Procedure: as §1, with “The” for “The BAT was conducted as set forth in Santos (2021) Allergy, 76:2420-2432. Blood from six healthy donors was drawn and Compound 128 was added at various concentrations (10 μM, 3.16 μM, 1 μM, 0.3 μM, 0.1 μM, 0.03 μM, or 0 μM). Blood samples were gently rocked at room temperature for 2 hours, 24 hours, or 48 hours. The”
Blood samples were gently rocked at room temperature for 2 hours. […] Activated basophils were also defined as CCR3+, low side scatter and CD203c+.

[5] = system: mast cells derived from ISM patients; experiment: Degranulation of mast cells grown from CD34+ blood cells from ISM patients (FIG. 22); assay type: cell-based, human; conditions: antigen stimulation in absence of SCF
BTK = BTK (Homo sapiens, UniProt Q06187); experiment: Antigen-induced BTK phosphorylation in ISM-like mast cells; assay type: cell-based; set-up: Human mast cells were differentiated from bone marrow CD34+ cells from six healthy donors; endogenous in cells; host or cells: human mast cells differentiated from bone marrow CD34+ cells of healthy donors, cultured with SCF; conditions: ISM-like (+SCF) mast cells, two hours treatment prior to stimulation
Procedure: (§2) Human mast cells were derived from bone marrow CD34+ cells from six healthy donors for up to eight weeks by culturing CD34+ cells in StemSpan SFEM II (Stem Cell Technologies) supplemented with stem cell factor (SCF; 100 ng/mL; R&D System), IL-6 (R&D Systems), IL-3 (R&D Systems) and 1% penicillin/streptomycin (P/S; Gibco) for the first 10 days and in StemSpan SFEM II supplemented with SCF and IL-6 and 1% P/S for the remaining time in culture. […] Supernatant was collected and histamine levels were measured using a Histamine ELISA kit (Eagle Biosciences). […] Percent of activated mast cells was calculated as number of activated mast cells over the total number of mast cells.
(§3) Human mast cells were differentiated from bone marrow CD34+ cells from six healthy donors, cultured and sensitized as set forth in Example 4. […] The median fluorescence intensity of phosphorylated BTK was measured. CD63 and histamine levels in these cells were measured and percent activated mast cells were calculated as set forth in Example 4. The percent of stimulated control for pBTK, activated mast cells (CD63+) and histamine levels was calculated. […]

[6] = system: mast cell from an ISM patient; experiment: IgE-mediated calcium influx in ISM patient mast cells (FIG. 17); assay type: cell-based, human; conditions: presence of SCF, prior to antigen stimulation
Procedure: Mast cell from an ISM patient was treated with Compound 128 at 50 mg, 75 mg, 100 mg, and 150 mg BID dose prior to antigen (Ag) stimulation. ISM 3-2 mast cell donor MC 1061-004 C1D8 D39. Experiments performed in the presence of SCF. […] Percent of Control (POC) based on Area-under-Curve above baseline (1st value).

ISM-like mast cells = experiment: Antigen-induced degranulation (CD63 and histamine) in ISM-like mast cells; assay type: cell-based, human; conditions: ISM-like (+SCF) mast cells, two hours treatment prior to stimulation
Procedure: as §2, §3

BTK, sequence (Q06187 whole entry): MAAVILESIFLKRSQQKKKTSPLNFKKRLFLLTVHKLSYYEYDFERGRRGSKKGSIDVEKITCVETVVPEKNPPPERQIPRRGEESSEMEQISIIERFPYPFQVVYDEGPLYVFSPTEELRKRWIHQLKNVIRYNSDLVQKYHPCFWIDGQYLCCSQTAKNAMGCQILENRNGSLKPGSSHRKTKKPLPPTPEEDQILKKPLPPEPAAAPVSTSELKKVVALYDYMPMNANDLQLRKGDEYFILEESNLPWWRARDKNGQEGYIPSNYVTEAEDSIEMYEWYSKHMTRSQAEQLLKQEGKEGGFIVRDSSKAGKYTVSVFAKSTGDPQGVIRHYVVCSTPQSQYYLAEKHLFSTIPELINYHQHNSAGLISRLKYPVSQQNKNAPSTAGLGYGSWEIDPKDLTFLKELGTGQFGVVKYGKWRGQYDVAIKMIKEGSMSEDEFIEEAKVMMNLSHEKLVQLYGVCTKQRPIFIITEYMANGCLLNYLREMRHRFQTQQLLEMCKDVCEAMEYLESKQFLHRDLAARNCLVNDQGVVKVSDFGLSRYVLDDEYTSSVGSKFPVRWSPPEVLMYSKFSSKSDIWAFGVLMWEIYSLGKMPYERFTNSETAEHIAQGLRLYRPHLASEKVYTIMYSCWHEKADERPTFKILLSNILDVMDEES

- IgE-mediated BTK phosphorylation (BTK): potently inhibits
SMILES: C=CC(=O)N1CCC(F)(CNc2ncnc(N)c2-c2ccc(Oc3ccccc3)cc2)CC1 [Compound 128, 1-(4-(((6-amino-5-(4-phenoxyphenyl)pyrimidin-4-yl)amino)methyl)-4-fluoropiperidin-1-yl)prop-2-en-1-one]
- activation of multiple downstream signaling proteins (mast cells [1]): can be inhibited
- potency increase after 24 hours drug exposure (basophils [2]): approximately 4 fold
- monomeric IgE contribution to degranulation and cytokine production (mast cells [3]): inhibited
- basophil activation (CD63+, CD203c+) (basophils [4]): fully inhibits basophil activation
- degranulation of ISM patient-derived mast cells [5]: inhibited the degranulation
- IgE-mediated calcium influx [6]: potently inhibits
- IgE-mediated degranulation (CD63 and histamine) (ISM-like mast cells): potently inhibits
